Results as given in patent US20230073777A1, “CYCLIC-AMP RESPONSE ELEMENT BINDING PROTEIN (CBP) AND/OR ADENOVIRAL E1A BINDING PROTEIN OF 300 KDA (P300) DEGRADATION COMPOUNDS AND METHODS OF USE” (CULLGEN (SHANGHAI), INC., priority 2019, published 2023).

Test system: LNCaP cells
Test: LNCaP cell viability assay (CellTiter-Glo)
Assay type: cell-based
Conditions: Homo sapiens, 72 h, LNCaP prostate cancer cell viability inhibition, 3 days
Procedure: LNCaP cells seeded in 96-well plates were treated with 10 μM GNE-781 or selected bivalent compounds, i.e. P-001, P-002, and P-019, following a 12-point 3-fold serial dilution. Three days after treatment, cell viability was determined using the CellTiter-Glo kit (Promega) following manufacturer's instructions. Cell viability was normalized to the mean values of 3 replicates of untreated cells. Dose-dependent response was analyzed following the least-squares non-linear regression method using the GraphPad Prism 5.0 software.
LNCaP cells were treated with GNE-781 or selected bivalent compounds for 3 days at indicated concentrations following a 3-fold serial dilution.
Cells were seeded at a density of 5000 cells per well in 96-well assay plates and treated with test compounds following a 12-point 3-fold serial dilution. Three days later, cell viability was determined using the CellTiter-Glo assay kit according to the manufacturer's instructions. The dose-response curves were determined and IC50 values were calculated using the GraphPad Prism software following a nonlinear regression (least squares fit) method.

Compound	IC50 (CellTiter-Glo (Table 3))	IC50 (CellTiter-Glo (Table 2))
CNC(=O)N1CCc2c(c(N3CCCc4cc(-c5cnn(CC(=O)NCCOCCC(=O)N[C@H](C(=O)N6C[C@H](O)CC6C(=O)NCc6ccc(-c7scnc7C)cc6)C(C)(C)C)c5)c(C(F)F)cc43)nn2C2CCOCC2)C1 (stereo in doubt) [P-074, 3-(7-(Difluoromethyl)-6-(1-(2-((2-(3-(((S)-1-((2S,4R)-4-hydroxy-2-((4-(4-methylthiazol-5-yl)benzyl)carbamoyl)pyrrolidin-1-yl)-3,3-dimethyl-1-oxobutan-2-yl)amino)-3-oxopropoxy)ethyl)amino)-2-oxoethyl)-1H-pyrazol-4-yl)-3,4-dihydroquinolin-1(2H)-yl)-N-methyl-1-(tetrahydro-2H-pyran-4-yl)-1,4,6,7-tetrahydro-5H-pyrazolo[4,3-c]pyridine-5-carboxamide]	> 10000 nM	–
CNC(=O)N1CCc2c(c(N3CCCc4cc(-c5cnn(CC(=O)NCCOCCOCCOCCOCCOCCC(=O)N[C@H](C(=O)N6C[C@H](O)CC6C(=O)NCc6ccc(-c7scnc7C)cc6)C(C)(C)C)c5)c(C(F)F)cc43)nn2C2CCOCC2)C1 (stereo in doubt) [P-082, 3-(7-(Difluoromethyl)-6-(1-((S)-23-((2S,4R)-4-hydroxy-2-((4-(4-methylthiazol-5-yl)benzyl)carbamoyl)pyrrolidine-1-carbonyl)-24,24-dimethyl-2,21-dioxo-6,9,12,15,18-pentaoxa-3,22-diazapentacosyl)-1H-pyrazol-4-yl)-3,4-dihydroquinolin-1(2H)-yl)-N-methyl-1-(tetrahydro-2H-pyran-4-yl)-1,4,6,7-tetrahydro-5H-pyrazolo[4,3-c]pyridine-5-carboxamide]	> 10000 nM	–
CNC(=O)N1CCc2c(c(N3CCCc4cc(-c5cnn(CC(=O)NCCOCCOCC(=O)N[C@H](C(=O)N6C[C@H](O)CC6C(=O)NCc6ccc(-c7scnc7C)cc6)C(C)(C)C)c5)c(C(F)F)cc43)nn2C2CCOCC2)C1 (stereo in doubt) [P-083, 3-(7-(Difluoromethyl)-6-(1-((S)-13-((2S,4R)-4-hydroxy-2-((4-(4-methylthiazol-5-yl)benzyl)carbamoyl)pyrrolidine-1-carbonyl)-14,14-dimethyl-2,11-dioxo-6,9-dioxa-3,12-diazapentadecyl)-1H-pyrazol-4-yl)-3,4-dihydroquinolin-1(2H)-yl)-N-methyl-1-(tetrahydro-2H-pyran-4-yl)-1,4,6,7-tetrahydro-5H-pyrazolo[4,3-c]pyridine-5-carboxamide]	> 10000 nM	–
CNC(=O)N1CCc2c(c(N3CCCc4cc(-c5cnn(C)c5)c(C(F)F)cc43)nn2C2CCN(C(=O)CNc3cccc4c3C(=O)N(C3CCC(=O)NC3=O)C4=O)CC2)C1 (stereo not drawn) [P-013]	–	105 nM
CNC(=O)N1CCc2c(c(N3CCCc4cc(-c5cnn(C)c5)c(C(F)F)cc43)nn2C2CCN(C(=O)CN3CCC(Nc4cccc5c4C(=O)N(C4CCC(=O)NC4=O)C5=O)CC3)CC2)C1 (stereo not drawn) [P-101, 3-(7-(Difluoromethyl)-6-(1-methyl-1H-pyrazol-4-yl)-3,4-dihydroquinolin-1(2H)-yl)-1-(1-(2-(4-((2-(2,6-dioxopiperidin-3-yl)-1,3-dioxoisoindolin-4-yl)amino)piperidin-1-yl)acetyl)piperidin-4-yl)-N-methyl-1,4,6,7-tetrahydro-5H-pyrazolo[4,3-c]pyridine-5-carboxamide]	> 1000 nM	–

Further lines, results first:

IC50 (CellTiter-Glo (Table 3))	IC50 (CellTiter-Glo (Table 2))	Compound
228 nM	–	CNC(=O)N1CCc2c(c(N3CCCc4cc(-c5cnn(C)c5)c(C(F)F)cc43)nn2C2CCN(C(=O)CCCCC#Cc3cccc4c3C(=O)N(C3CCC(=O)NC3=O)C4)CC2)C1 (stereo not drawn) [P-094, 3-(7-(Difluoromethyl)-6-(1-methyl-1H-pyrazol-4-yl)-3,4-dihydroquinolin-1(2H)-yl)-1-(1-(7-(2-(2,6-dioxopiperidin-3-yl)-3-oxoisoindolin-4-yl)hept-6-ynoyl)piperidin-4-yl)-N-methyl-1,4,6,7-tetrahydro-5H-pyrazolo[4,3-c]pyridine-5-carboxamide]
1070 nM	–	CNC(=O)N1CCc2c(c(N3CCCc4cc(-c5cnn(C)c5)c(C(F)F)cc43)nn2C2CCN(CCCCCC#Cc3cccc4c3C(=O)N(C3CCC(=O)NC3=O)C4=O)CC2)C1 (stereo not drawn) [P-098, 3-(7-(Difluoromethyl)-6-(1-methyl-1H-pyrazol-4-yl)-3,4-dihydroquinolin-1(2H)-yl)-1-(1-(7-(2-(2,6-dioxopiperidin-3-yl)-1,3-dioxoisoindolin-4-yl)hept-6-yn-1-yl)piperidin-4-yl)-N-methyl-1,4,6,7-tetrahydro-5H-pyrazolo[4,3-c]pyridine-5-carboxamide]
146 nM	–	CNC(=O)N1CCc2c(c(N3CCCc4cc(-c5cnn(C)c5)c(C(F)F)cc43)nn2C2CCN(C(=O)CN3CCC(C#Cc4cccc5c4C(=O)N(C4CCC(=O)NC4=O)C5=O)CC3)CC2)C1 (stereo not drawn) [P-103, 3-(7-(Difluoromethyl)-6-(1-methyl-1H-pyrazol-4-yl)-3,4-dihydroquinolin-1(2H)-yl)-1-(1-(2-(4-((2-(2,6-dioxopiperidin-3-yl)-1,3-dioxoisoindolin-4-yl)ethynyl)piperidin-1-yl)acetyl)piperidin-4-yl)-N-methyl-1,4,6,7-tetrahydro-5H-pyrazolo[4,3-c]pyridine-5-carboxamide]
> 500 nM	–	CC(=O)N1CCc2c(c(N3CCCc4cc(-c5cnn(C)c5)c(C(F)F)cc43)nn2C2CCN(C3CCN(CCOc4cccc5c4C(=O)N(C4CCC(=O)NC4=O)C5=O)CC3)CC2)C1 (stereo not drawn) [P-134, 4-(2-(4-(5-Acetyl-3-(7-(difluoromethyl)-6-(1-methyl-1H-pyrazol-4-yl)-3,4-dihydroquinolin-1(2H)-yl)-4,5,6,7-tetrahydro-1H-pyrazolo[4,3-c]pyridin-1-yl)-[1,4′-bipiperidin]-1′-yl)ethoxy)-2-(2,6-dioxopiperidin-3-yl)isoindoline-1,3-dione]
> 500 nM	–	CC(=O)N1CCc2c(c(N3CCCc4cc(-c5cnn(C)c5)c(C(F)F)cc43)nn2C2CCN(CCCCCC(=O)Nc3cccc4c3C(=O)N(C3CCC(=O)NC3=O)C4=O)CC2)C1 (stereo not drawn) [P-136, 6-(4-(5-Acetyl-3-(7-(difluoromethyl)-6-(1-methyl-1H-pyrazol-4-yl)-3,4-dihydroquinolin-1(2H)-yl)-4,5,6,7-tetrahydro-1H-pyrazolo[4,3-c]pyridin-1-yl)piperidin-1-yl)-N-(2-(2,6-dioxopiperidin-3-yl)-1,3-dioxoisoindolin-4-yl)hexanamide]
> 500 nM	–	CNC(=O)N1CCc2c(c(N3CCCc4cc(-c5cnn(C)c5)c(C(F)F)cc43)nn2C2CCN(C(=O)CN3CCN(Cc4cccc5c4C(=O)N(C4CCC(=O)NC4=O)C5=O)CC3)CC2)C1 (stereo not drawn) [P-137, 3-(7-(Difluoromethyl)-6-(1-methyl-1H-pyrazol-4-yl)-3,4-dihydroquinolin-1(2H)-yl)-1-(1-(2-(4-((2-(2,6-dioxopiperidin-3-yl)-1,3-dioxoisoindolin-4-yl)methyl)piperazin-1-yl)acetyl)piperidin-4-yl)-N-methyl-1,4,6,7-tetrahydro-5H-pyrazolo[4,3-c]pyridine-5-carboxamide]
> 500 nM	–	CC(=O)N1CCc2c(c(N3CCCc4cc(-c5cnn(C)c5)c(C(F)F)cc43)nn2C2CCN(C(=O)CN3CCN(Cc4cccc5c4C(=O)N(C4CCC(=O)NC4=O)C5=O)CC3)CC2)C1 (stereo not drawn) [P-138, 4-((4-(2-(4-(5-Acetyl-3-(7-(difluoromethyl)-6-(1-methyl-1H-pyrazol-4-yl)-3,4-dihydroquinolin-1(2H)-yl)-4,5,6,7-tetrahydro-1H-pyrazolo[4,3-c]pyridin-1-yl)piperidin-1-yl)-2-oxoethyl)piperazin-1-yl)methyl)-2-(2,6-dioxopiperidin-3-yl)isoindoline-1,3-dione]
